Data: patent publication US20210360924A1, “PLANT OR SEED COATING” (University of Southampton, priority 2017, published 2021)

Target: G. pallida SER-7 (Globodera pallida, UniProt A0A183BS20, DEL280-286/G462A/H333Q/S454N/S6T/Y334H)
Assay: Cut head pharyngeal pumping assay, ser-7 (tm1325) expressing Gpa-ser-7

NCCc1c[nH]c2ccc(O)cc12 [serotonin, 5-hydroxytryptamine]
EC50: 3.9 µM
